Several values for one entry are separate records, joined by “and”; a condition that tells them apart may be missing. Equal values may be shown once.
Test system: radiation-induced fibrosarcoma (RIF) tumors
Assay: Preclinical Photofrin-PDT of RIF tumors: [ROS]rx by ROSED from Oxylite-measured or DCS blood-flow-derived oxygen
Assay type: in vivo, mice
Details: per mouse; for Initial Photofrin concentration, [PS]: in tumor, 5 mg/kg i.v. 24 h before light, 5 mg/kg; for Calculated [ROS]rx, Measured [^3O2] / Calculated [ROS]rx, DCS blood flow: 75 mW/cm^2, 1800 or 3333 s; for Calculated [ROS]rx, Measured [^3O2]: Oxylite-measured oxygen; for Calculated [ROS]rx, DCS blood flow: blood-flow-derived oxygen
Description: Tumor model and PDT treatment conditions: A preclinical study was conducted using a murine model to investigate the relationship between the dynamics of tumor oxygen and blood flow during PDT. Female C3H mice (Charles River Laboratories, Kingston, NY) between 6 to 8 weeks of age were used in this study. Radiation-induced fibrosarcoma (RIF) tumors were propagated on the shoulders of mice by intradermal injection of 3×10^5 cells. The mice were fed with chlorophyll-free (alfalfa-free) rodent diet (Harlan Laboratories Inc., Indianapolis, Indiana, US) for two weeks prior to treatment to eliminate the fluorescence signal from chlorophyll-breakdown products, which overlap with the emission spectrum of Photofrin fluorescence. PDT was performed when tumors reached ˜4-5 mm in diameter. The treatment area was depilated with Nair (Church & Dwight Co., Inc., Ewing, New Jersey, US) and 5 mg/kg Photofrin was injected via tail vein 24 hours prior to measurements and light delivery. Tissue optical properties and Photofrin fluorescence spectra were obtained using a custom-made multi-fiber contact probe, as described elsewhere (18, 19), before and after PDT. Tissue oxygenation and blood flow changes were monitored continuously during the delivery of PDT using oximeter and DCS as described below. At a 24-h drug-light interval, superficial irradiation of the tumor was performed with a 630-nm laser (Biolitec AG., A-1030, Vienna). A microlens fiber was coupled to the laser to irradiate the tumor uniformly. Animals used in this study were under the care of the University of Pennsylvania Laboratory Animal Resources and the studies were approved by the University of Pennsylvania Institutional Animal Care and Use Committee.
Measurement of tumor tissue oxygenation during preclinical PDT: Tumor oxygen was monitored throughout the PDT treatment in mice using an optical oxygen partial pressure (pO2) monitor (OxyLite Pro, Oxford Optronix, Oxford, UK), with a bare-fiber-type probe (NX-BF/O/E, Oxford Optronix, Oxford, UK). The tip of the probe was inserted into the tumor at approximately 1-2 mm depth from the treatment surface to measure the changes in tissue oxygen partial pressure within the tumor mass during PDT. ^3O2 concentration was then approximated by multiplying the measured pO2 with ^3O2 solubility in tissue, which is 1.295 μM/mmHg (20, 21).
Measurement of blood flow during preclinical PDT: Tumor blood flow was measured using DCS, an optical technique that measures the rapid speckle intensity fluctuations induced by blood flow. DCS, within a noncontact probe setup, was used to monitor blood flow changes in mice during PDT. A detailed description of the DCS instrument can be found in (22, 23). Briefly, a continuous wave 785-nm laser with long coherence length (CrystaLaser Inc., Reno, NV) delivered light through a source fiber, and the diffuse reflected light was collected using two single mode fibers located 0.3 cm laterally from the source fiber. These fibers were mounted on the imaging plane of a camera with sensor removed. A camera lens was used to focus the laser and to collect diffuse reflected light from the tumor at a fixed distance of 15 cm from the camera lens. This setup permits noncontact blood flow measurements during PDT without obstructing the treatment light. Two single photon counting avalanche photodiodes were used to detect the diffuse light in parallel. Notch filters at 630 nm and a 785 nm bandpass filter were used to prevent the ambient room light and the strong 630-nm treatment laser from saturating the detectors. Tissue blood flow measurements started 5 minutes before the beginning of PDT treatment and lasted until completion of PDT.
Calculation of [ROS]rx using ROSED: The PDT process is described by a set of kinetic equations which can be simplified to compute the production of [ROS]rx (4, 8, 9, 13). […]

Question: Photofrin was tested. Which “Initial Photofrin concentration, [PS]” value (treatment time 1800 s) did it give?
Answer: The value was 6.9 µM and 6.8 µM and 5.2 µM and 5.7 µM.

Question: What about the “Initial Photofrin concentration, [PS]” value (treatment time 3333 s) of the same substance?
Answer: The value was 6.5 µM and 4.2 µM and 4.5 µM.

Question: What about the “Calculated [ROS]rx, Measured [^3O2]” value (treatment time 1800 s) of the same substance?
Answer: Its value is 1.39 mM and 1.24 mM and 1.07 mM and 1.09 mM.

Question: What about the “Calculated [ROS]rx, Measured [^3O2]” value (treatment time 3333 s) of the same substance?
Answer: The value was 2.33 mM and 1.73 mM and 1.89 mM.

Question: And the “Calculated [ROS]rx, DCS blood flow” value (treatment time 1800 s)?
Answer: The value was 1.35 mM and 1.18 mM and 1.12 mM and 0.95 mM.

Question: What about the “Calculated [ROS]rx, DCS blood flow” value (treatment time 3333 s) of the same substance?
Answer: The value was 2.21 mM and 1.92 mM and 1.81 mM.
